Measured values as given in the supplement of paper PMC10307832.

Tests used:
Assay in all cases: relative viability (nuclei count vs DMSO), 5 days (fraction); higher = more cells survive
201T = test system: 201T
How it was run: (§1)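 Lung cancer cell lines in 1536-well plates got either a single drug or a fixed anchor-drug dose together with five library-drug doses (not always all listed) in √10 steps, by pin tool, on the day after seeding. Nuclei were counted after 5 days, and relative viability is the treated-to-vehicle ratio of nuclei counts. Values are medians of duplicate plates.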

A-427 = test system: A-427
How it was run: as §1

COR-L23 = test system: COR-L23
How it was run: as §1

H3255 = test system: H3255
How it was run: as §1

LCLC-103H = test system: LCLC-103H
How it was run: as §1

LCLC-97TM1 = test system: LCLC-97TM1
How it was run: as §1

LK-2 = test system: LK-2
How it was run: as §1

LU99A = test system: LU99A
How it was run: as §1

NCI-H1563 = test system: NCI-H1563
How it was run: as §1

NCI-H1650 = test system: NCI-H1650
How it was run: as §1

NCI-H1651 = test system: NCI-H1651
How it was run: as §1

NCI-H1944 = test system: NCI-H1944
How it was run: as §1

NCI-H2347 = test system: NCI-H2347
How it was run: as §1

NCI-H23 = test system: NCI-H23
How it was run: as §1

NCI-H460 = test system: NCI-H460
How it was run: as §1

NCI-H650 = test system: NCI-H650
How it was run: as §1

NCI-H727 = test system: NCI-H727
How it was run: as §1

NCI-H838 = test system: NCI-H838
How it was run: as §1

PC-14 = test system: PC-14
How it was run: as §1

PC-3 [JPC-3] = test system: PC-3 [JPC-3]
How it was run: as §1

RERF-LC-KJ = test system: RERF-LC-KJ
How it was run: as §1

SW 1573 = test system: SW 1573
How it was run: as §1

For `C[C@@H]1CN(CC(=O)Nc2ccc3c(c2)Cc2cccc(-c4cc(=O)cc(N5CCOCC5)o4)c2S3)C[C@H](C)O1` + C[C@@H](Oc1cc(-c2cnn(C3CCNCC3)c2)cnc1N)c1c(Cl)ccc(F)c1Cl [Crizotinib] (partner 1 µM), the relative viability (201T; first compound 0.04 µM) was 1.05, the relative viability (201T; first compound 0.1265 µM) was 0.98 and the relative viability (201T; first compound 0.4 µM) was 1.04. It also gave a relative viability (201T; first compound 4 µM) of 0.971, a relative viability (A-427; first compound 0.04 µM) of 1.04 and a relative viability (A-427; first compound 0.1265 µM) of 0.941. The relative viability (A-427; first compound 0.4 µM) was 0.827, the relative viability (A-427; first compound 4 µM) was 0.844 and the relative viability (COR-L23; first compound 0.04 µM) was 0.678. For the same compound, the relative viability (COR-L23; first compound 0.1265 µM) was 0.625, the relative viability (COR-L23; first compound 0.4 µM) was 0.693 and the relative viability (COR-L23; first compound 4 µM) was 0.516. It also gave a relative viability (H3255; first compound 0.04 µM) of 0.824, a relative viability (H3255; first compound 0.1265 µM) of 0.785 and a relative viability (H3255; first compound 0.4 µM) of 0.814. The relative viability (H3255; first compound 4 µM) was 0.719, the relative viability (LCLC-103H; first compound 0.04 µM) was 1.08 and the relative viability (LCLC-103H; first compound 0.1265 µM) was 1.03. For the same compound, the relative viability (LCLC-103H; first compound 0.4 µM) was 0.984, the relative viability (LCLC-103H; first compound 4 µM) was 1.03 and the relative viability (LCLC-97TM1; first compound 0.1265 µM) was 0.396. It also gave a relative viability (LCLC-97TM1; first compound 0.4 µM) of 0.287, a relative viability (LCLC-97TM1; first compound 4 µM) of 0.337 and a relative viability (LK-2; first compound 0.1265 µM) of 0.198. The relative viability (LK-2; first compound 0.4 µM) was 0.242, the relative viability (LK-2; first compound 4 µM) was 0.191 and the relative viability (LU99A; first compound 0.04 µM) was 0.523. It also gave a relative viability (LU99A; first compound 0.1265 µM) of 0.636, a relative viability (LU99A; first compound 0.4 µM) of 0.64 and a relative viability (LU99A; first compound 4 µM) of 0.569. It also gave a relative viability (NCI-H1563; first compound 0.04 µM) of 0.852, a relative viability (NCI-H1563; first compound 0.1265 µM) of 0.849 and a relative viability (NCI-H1563; first compound 0.4 µM) of 0.688. It also gave a relative viability (NCI-H1563; first compound 4 µM) of 0.747, a relative viability (NCI-H1650; first compound 0.04 µM) of 0.991 and a relative viability (NCI-H1650; first compound 0.1265 µM) of 0.959. For the same compound, the relative viability (NCI-H1650; first compound 0.4 µM) was 1.1, the relative viability (NCI-H1650; first compound 4 µM) was 0.55 and the relative viability (NCI-H1651; first compound 0.04 µM) was 0.842. For the same compound, the relative viability (NCI-H1651; first compound 0.1265 µM) was 0.859, the relative viability (NCI-H1651; first compound 0.4 µM) was 0.903 and the relative viability (NCI-H1651; first compound 4 µM) was 0.882. It also gave a relative viability (NCI-H1944; first compound 0.1265 µM) of 1.09, a relative viability (NCI-H1944; first compound 0.4 µM) of 1.22 and a relative viability (NCI-H1944; first compound 4 µM) of 1.16. For the same compound, the relative viability (NCI-H2347; first compound 0.04 µM) was 0.784, the relative viability (NCI-H2347; first compound 0.1265 µM) was 0.754 and the relative viability (NCI-H2347; first compound 0.4 µM) was 0.735. For the same compound, the relative viability (NCI-H2347; first compound 4 µM) was 0.578, the relative viability (NCI-H23; first compound 0.04 µM) was 0.521 and the relative viability (NCI-H23; first compound 0.1265 µM) was 0.487. The relative viability (NCI-H23; first compound 0.4 µM) was 0.369, the relative viability (NCI-H23; first compound 4 µM) was 0.487 and the relative viability (NCI-H460; first compound 0.04 µM) was 0.973. For the same compound, the relative viability (NCI-H460; first compound 0.1265 µM) was 0.924, the relative viability (NCI-H460; first compound 0.4 µM) was 0.971 and the relative viability (NCI-H460; first compound 4 µM) was 0.662. It also gave a relative viability (NCI-H650; first compound 0.04 µM) of 0.433, a relative viability (NCI-H650; first compound 0.1265 µM) of 0.753 and a relative viability (NCI-H650; first compound 0.4 µM) of 0.727. For the same compound, the relative viability (NCI-H650; first compound 4 µM) was 0.602, the relative viability (NCI-H727; first compound 0.04 µM) was 0.891 and the relative viability (NCI-H727; first compound 0.1265 µM) was 0.746. For the same compound, the relative viability (NCI-H727; first compound 0.4 µM) was 0.927, the relative viability (NCI-H727; first compound 4 µM) was 0.624 and the relative viability (NCI-H838; first compound 0.04 µM) was 0.886. It also gave a relative viability (NCI-H838; first compound 0.1265 µM) of 0.77, a relative viability (NCI-H838; first compound 0.4 µM) of 0.755 and a relative viability (NCI-H838; first compound 4 µM) of 0.616. It also gave a relative viability (PC-14; first compound 0.04 µM) of 0.976, a relative viability (PC-14; first compound 0.1265 µM) of 0.982 and a relative viability (PC-14; first compound 0.4 µM) of 0.859. It also gave a relative viability (PC-14; first compound 4 µM) of 0.706, a relative viability (PC-3 [JPC-3]; first compound 0.04 µM) of 0.947 and a relative viability (PC-3 [JPC-3]; first compound 0.1265 µM) of 0.936. It also gave a relative viability (PC-3 [JPC-3]; first compound 0.4 µM) of 0.971, a relative viability (PC-3 [JPC-3]; first compound 4 µM) of 0.962 and a relative viability (RERF-LC-KJ; first compound 0.04 µM) of 0.861. The relative viability (RERF-LC-KJ; first compound 0.1265 µM) was 0.779, the relative viability (RERF-LC-KJ; first compound 0.4 µM) was 0.909 and the relative viability (RERF-LC-KJ; first compound 4 µM) was 0.722. For the same compound, the relative viability (SW 1573; first compound 0.04 µM) was 0.904, the relative viability (SW 1573; first compound 0.1265 µM) was 0.918 and the relative viability (SW 1573; first compound 0.4 µM) was 0.744. For the same compound, the relative viability (SW 1573; first compound 4 µM) was 0.746.
